Laboratory results as given in patent US20230277553A1, “THERAPEUTIC COMPOSITION OF CURE-PRO COMPOUNDS FOR TARGETED DEGRADATION OF BET DOMAIN PROTEINS, AND METHODS OF MAKING AND USAGE” (CORNELL UNIVERSITY, priority 2020, published 2023).
Entries after “also recorded” stand apart in the source; their conditions may differ.

Experiments:
BRD4 [1] = biological target: T1, BRD4 (Homo sapiens, UniProt O60885); assay: Summary of BRD4 degradation by CURE-PRO pairs, estimated from Western Blot or WES (Proteinsimple); format: cell-based; parameters: endogenous in cells; details: for Degradation of BRD4 in combination with CRBN ligand [drawing 407]: first drawing (by text: 8048); for Degradation of BRD4 in combination with CRBN ligand [drawing 371]: second drawing (8047)
Text: A black check mark indicates efficacy of 30% to 70% or higher protein degradation.

BRD4 [2] = biological target: T1, BRD4; assay: CURE-PRO-mediated BRD4 degradation, Western blot, HeLa cells; format: cell-based; parameters: endogenous in cells; host or cells: HeLa; details: 24 h; for BRD4 degradation, co-treatment with CRBN ligand 8048: 1:1 with 8048, 1-10 μM each; for BRD4 degradation, co-treatment with CRBN ligand 8048 / BRD4 degradation, co-treatment with CRBN ligand 8049 / BRD4 degradation, BRD ligand alone / BRD4 degradation, co-treatment with CRBN ligand 8047: Western blot; for BRD4 degradation, co-treatment with CRBN ligand 8049: 1:1 with 8049, 1-10 μM each; for BRD4 degradation, BRD ligand alone: BRD monomer alone; for BRD4 degradation, co-treatment with CRBN ligand 8047: 1:1 with 8047, 10 μM each
Experimental: All cell lines were purchased from ATCC or DSMZ and grown at 37° C. with 5% CO2. Human HeLa cells were cultured in complete growth medium (Dulbecco's modified Eagle's medium (DMEM) supplemented with 10% FBS); MCF7 cells were cultured in complete growth medium (Dulbecco's modified Eagle's medium (DMEM) supplemented with 10% FBS and 0.01 mg/ml human recombinant insulin (Sigma Aldrich); Namalwa and MOLM-13 cells were cultured in complete growth medium (RPMI 1640 medium supplemented with 10% FBS); MV-4-11 were cultured in complete growth medium (Iscove's Modified Dulbecco's medium, supplemented with 10% FBS); HCT116 cells were cultured in complete growth medium (McCoy's 5a Medium supplemented with 10% FBS). For cellular degradation of BRD4 studies, cells were seeded in a 12-well plate at 70-80% confluency, allowed to attach overnight, and incubated with the indicated compounds for the indicated time. When indicated, a 15-minute pretreatment with 10 μM pomalidomide, 10 μM VHL298, 10 μM Nutlin3a, 1 μM MG-132 or 1 μM Carfilzomib was performed before the addition of CURE-PROs. For washout studies, after CURE-PRO treatment, media was aspirated and incubated with complete medium for the indicated time before lysis.
Anti-BRD4 (13440, 1:1,000 dilution for Western Blot and 1:25 dilution for ProteinSimple); Anti-BRD2 (5848 1:1,000 dilution for Western Blot and 1:25 dilution for ProteinSimple); β-Actin (3700, 1:2,000 dilution for Western Blot), β-Actin (4970, 1:50 dilution for ProteinSimple) anti-mouse IgG-HRP, and anti-rabbit IgG-HRP antibodies were purchased Cell Signaling Technology. Anti-GAPDH (600-401-A33, 1:100 dilution for ProteinSimple) was purchased from Rockland Immunochemicals, Inc. Anti-BRD3 (sc-81202, 1:200 dilution for Western Blot) was purchased from Santa Cruz Biotechnology.
HeLa, MCF7, or HCT116 cells (2.5-3×10^6) were treated for 24 hours with the indicated compounds solubilized in DMSO. The cells were washed in ice-cold PBS and were then lysed in RIPA lysis buffer (150 mM NaCl, 5 mM EDTA, 1% NP-40, 0.5% sodium deoxycholate, 0.1% SDS, 50 mM Tris, pH 8.0.) with Roche protease inhibitor complete cocktail and phosphatase inhibitors (10 mM sodium fluoride, 10 mM sodium pyrophosphate, 1 mM sodium orthovanadate and 20 mM β-glycerophosphate). The total protein concentrations were determined by Bradford Protein Assay and 10-20 μg of protein was loaded onto 4-15% Tris-Glycine gradient gels (Biorad). After standard gel electrophoresis, the separated proteins were transferred to PVDF membrane by wet transfer. The immunoblots were then blocked for 1 hour in 5% skim milk in TBST or 5% BSA in TBST, according to manufacturer's instructions, before an overnight incubation at 4° C. with indicated antibodies and membranes. Membranes were then incubated with the appropriate horseradish peroxidase-conjugated secondary antibodies (1:5,000 dilution) for 1 h at room temperature and the bands were visualized using the Clarity Max Western ECL Substrate (Biorad) and the ChemiDoc Imaging System (Biorad). Signal was detected with ECL Western Blotting Substrate (Pierce) and X-ray film processed with a Konica SRX-101 X-ray film processor or captured by Bio-Rad's Chemidoc Imaging system.
HeLa cells (2.5×106) were treated for 24 hours with the sample compounds solubilized in DMSO. Compounds were added at 1-10 μM each. Standardized protein samples were electrophoresed and imaged as described in the immunoblotting description above. FIGS. 6-18 depicts the CURE-PRO-mediated BRD4 degradation for BRD monomers (JQ1 derivatives comprising of catechol linkers), and CRBN ligands, 8048 and 8049 (pomalidomide derivatives comprising boronic acid linkers) combined in a 1:1 ratio.
HeLa cells (2.5×106) were treated for 24 hours with the compounds solubilized in DMSO. The compounds were added at 10 μM each. Standardized protein samples were electrophoresed and imaged as described in the immunoblotting section above. […]

[3] = Table 4, aryl-boronic acid-containing CRBN ligand

Structure (SMILES)	Degradation of BRD4 in combination with CRBN ligand [drawing 407] (BRD4 [1]; [3])	BRD4 degradation, co-treatment with CRBN ligand 8048 (BRD4 [2])	BRD4 degradation, co-treatment with CRBN ligand 8049 (BRD4 [2])	BRD4 degradation, BRD ligand alone (BRD4 [2])	Degradation of BRD4 in combination with CRBN ligand [drawing 371] (BRD4 [1]; Table 1, CRBN ligand)	BRD4 degradation, co-treatment with CRBN ligand 8047 (BRD4 [2])	also measured
CCNC(=O)C[C@@H]1N=C(c2ccc(Cl)cc2)c2cc(-c3ccc4cc(O)c(O)cc4c3)ccc2-n2c(C)nnc21 [BRD-N67]	✓ (A black check mark indicates efficacy of 30% to 70% or higher protein degradation)	causes degradation of BRD4	causes degradation of BRD4	no degradation of BRD4			Degradation of BRD4 in combination with CRBN ligand [drawing 408] (BRD4 [1]; Table 4, aryl-boronic acid-containing CRBN ligand, second drawing (by text: 8049)): ✓ (A black check mark indicates efficacy of 30% to 70% or higher protein degradation)
CCNC(=O)C[C@@H]1N=C(c2ccc(Cl)cc2)c2cc(OCCOCCOCCNC(=O)c3cccc(B(O)O)c3)ccc2-n2c(C)nnc21 [BRD-E42]					✓ (A black check mark indicates efficacy of 30% to 70% or higher protein degradation)	causes degradation of BRD4	
COc1ccc2c(c1)C(c1ccc(Cl)cc1)=N[C@@H](CC(=O)NCc1cccc(B(O)O)c1)c1nnc(C)n1-2 [BRD-E10]					✓ (A black check mark indicates efficacy of 30% to 70% or higher protein degradation)		Degradation of BRD4 in combination with CRBN ligand [drawing 370] (BRD4 [1]; Table 1, aromatic 1,2-diol- or hindered cis-1,2-diol-containing CRBN ligand, first drawing (8046)): ✓ (A black check mark indicates efficacy of 30% to 70% or higher protein degradation); Degradation of BRD4 in combination with VHL ligand [drawing 396] (BRD4 [1]; Table 3, aromatic 1,2-diol-containing VHL ligand, first drawing (by text: 8304)): ✓ (A black check mark indicates efficacy of 30% to 70% or higher protein degradation); Concentration at which BRD4 degradation is observed, co-dosed with 8046 (BRD4 [2]; 1:1 with 8046): 100 µM; Concentration at which complete BRD4 degradation is demonstrated, with 8047 (BRD4 [2]; 1:1 with 8047, tested 10 and 100 μM): 10 µM
COc1ccc2c(c1)C(c1ccc(Cl)cc1)=N[C@@H](CC(=O)NCCNC(=O)Cc1ccc(B(O)O)cc1)c1nnc(C)n1-2 [BRD-E27, (4-(2-((2-(2-((4S)-6-(4-chlorophenyl)-8-methoxy-1-methyl-4H-benzo[f][1,2,4]triazolo[4,3-a][1,4]diazepin-4-yl)acetamido)ethyl)amino)-2-oxoethyl)phenyl)boronic acid]					✓ (A black check mark indicates efficacy of 30% to 70% or higher protein degradation)	causes degradation of BRD4	
COc1ccc2c(c1)C(c1ccc(Cl)cc1)=N[C@@H](CC(=O)NCCNC(=O)/C=C/c1cccc(B(O)O)c1)c1nnc(C)n1-2 [BRD-E30, (3-((E)-3-((2-(2-((4S)-6-(4-chlorophenyl)-8-methoxy-1-methyl-4H-benzo[f][1,2,4]triazolo[4,3-a][1,4]diazepin-4-yl)acetamido)ethyl)amino)-3-oxoprop-1-en-1-yl)phenyl)boronic acid]				no change in expression	✓ (A black check mark indicates efficacy of 30% to 70% or higher protein degradation)		Degradation of BRD4 in combination with CRBN ligand [drawing 372] (BRD4 [1]; Table 1, CRBN ligand, third drawing (8066)): ✓ (A black check mark indicates efficacy of 30% to 70% or higher protein degradation)
COc1ccc2c(c1)C(c1ccc(Cl)cc1)=N[C@@H](CC(=O)NCCOCCOCCOCCOCCNC(=O)c1ccc(O)c(O)c1)c1nnc(C)n1-2 [BRD-N69]	✓ (A black check mark indicates efficacy of 30% to 70% or higher protein degradation)	causes degradation of BRD4; also recorded: Degradation is noted	no evidence of BRD4 degradation	no degradation of BRD4			
